From patent US20230203445A1, “HYPOIMMUNOGENIC CELLS” (HEALIOS K.K., priority 2020, published 2023)

Test system: iCaspase9-introduced cells
Assay: Suicide gene function: cell death induction by rapamycin (CellTiter Glo)
Type: cell-based, human
Details: 24 hr
Experimental: Next, an experiment was conducted to confirm whether the introduced suicide gene is functionable. In order to confirm the function of the suicide gene iCaspase9 introduced into universal donor iPS cells as a safety mechanism, the cell death induction by the addition of rapamycin in vitro was confirmed. In order to evaluate the cell death induction efficiency, CellTiter Glo Assay Kit (Promega) was used to luminescence measure the cell viability based on the amount of ATP, which is an index of cell viability. The above-mentioned iCaspase9-introduced cells (clone B), and iCaspase9-free unedited cells (Parental) were cultured for 24 hr under the condition of each rapamycin concentration (0 nM, 0.003 nM, 0.01 nM, 0.03 nM, 0.1 nM, 0.3 nM, 1 nM) and the viable cell rate was measured.

CO[C@H]1C[C@@H]2CC[C@@H](C)[C@@](O)(O2)C(=O)C(=O)N2CCCC[C@H]2C(=O)O[C@H]([C@H](C)C[C@@H]2CC[C@@H](O)[C@H](OC)C2)CC(=O)[C@H](C)/C=C(\C)[C@@H](O)[C@@H](OC)C(=O)[C@H](C)C[C@H](C)/C=C/C=C/C=C/1C [rapamycin]
rapamycin concentration at which cell death was induced by iCaspase9: ≥ 0.1 nM
